Assay results taken from PMC6346587, “Glucose 6-phosphate dehydrogenase 6-phosphogluconolactonase: characterization of the Plasmodium vivax enzyme and inhibitor studies” (Malaria Journal, 2019).
Where “and” joins values, the source holds several entries; their conditions need not be identical. Equal values may be shown once.

Experiments:
P. falciparum 3D7 [1] = settings: chloroquine-sensitive strain; cited from earlier work
[2] = system: P. falciparum NF54[hGrx1-roGFP2] glutathione redox ratio; test: Cytosolic glutathione redox sensor hGrx1-roGFP2, fluorescence plate reader; type: cell-based, Plasmodium falciparum
Protocol: NF54^[hGrx1–roGFP2] parasites were washed and resuspended after incubation in pre-warmed Ringer’s solution to a concentration of […]. 10 µL of cells (1 × 10^6 iRBCs) were transferred to each well of a 384-well plate (black, flat bottom, Greiner Bio-One, Frickenhausen, Germany) and were measured with the plate reader Clariostar (BMG Labtech, Ortenberg, Germany) with excitation wavelengths at 405 nm and 475 nm (emission 510 nm). The gain of the 405 nm and 475 nm excitation wavelengths was adjusted to match the full dynamic range of the hGrx1–roGFP2 redox sensor. The 405/475 nm ratio was then calculated. The graphs were plotted using the GraphPad Prism 5 software (San Diego, CA, USA). A one-way ANOVA test with 95% confidence intervals with the Dunnett’s multiple comparison test (GraphPad Prism 5.0) was applied for statistical analysis of significance (*p < 0.05; **p < 0.01; ***p < 0.001).
Recently, the cytosolic glutathione redox sensor was stably integrated into NF54-attB parasites. The direct response of NF54^[hGrx1–roGFP2] to mid- and long-term exposures were determined using the time-efficient plate reader (Clariostar). […] As depicted in Fig. 7, ML304 oxidized the cytosol, leading to an increase of the 405/488 nm ratio of the probe in a concentration-dependent manner with significant differences after a 24 h incubation.

Plasmodium gametocytes = settings: cited from earlier work
recombinant hGrx1-roGFP2 = target: T1, recombinant hGrx1-roGFP2 (Homo sapiens, UniProt P35754); test: In vitro interaction with recombinant hGrx1-roGFP2 probe; type: biochemical; settings: at the concentrations used in this study
T1 construct: made in house
Protocol: The sensor hGrx1–roGFP2 (human glutaredoxin 1-reduction–oxidation sensitive green fluorescent protein 2) was recently transiently expressed in 3D7 P. falciparum parasites by using the pARL1a(+) expression vector. Heterologous overexpression of hGrx1–roGFP2 for the evaluation of the in vitro interactions of ML304 and anti-malarial drugs with the recombinant redox probe was performed according to [35].
ML304 was used at concentrations of 10 nM to 1 mM in degassed standard reaction buffer (100 mM potassium phosphate, 1 mM EDTA, pH 7.0). […] The characterization of the in vitro interaction of hGrx1–roGFP2 with ML304 was performed according to Schuh et al..

[3] = system: cytosolic H2O2 levels of NF54-attB; design: method as in PMID 28874682; settings: roGFP2-Orp1 probe, NF54-attB blood stages; cited from earlier work
P. falciparum 3D7 [4] = test: [3H]-hypoxanthine incorporation assay on asexual blood stages; type: cell-based, Plasmodium falciparum; settings: 72 h [3H]-hypoxanthine incorporation assay
P. falciparum Dd2 = system: P. falciparum Dd2; design: method as in PMID 24501782; settings: CQ resistant strain; cited from earlier work
hG6PD = target: T2, hG6PD (Homo sapiens, UniProt P11413); settings: ML304; read-out: IC50 on human G6PD; cited from earlier work
T2 construct: made in house

[5] = system: human hepatocyte cell lines; design: method as in PMID 24501782; settings: cited from earlier work
PfGluPho = target: T3, PfGluPho (Plasmodium falciparum, UniProt Q8IKU0); settings: ML304; read-out: IC50 on PfGluPho; cited from earlier work
T3 construct: made in house
T3 sequence (Q8IKU0 1-910): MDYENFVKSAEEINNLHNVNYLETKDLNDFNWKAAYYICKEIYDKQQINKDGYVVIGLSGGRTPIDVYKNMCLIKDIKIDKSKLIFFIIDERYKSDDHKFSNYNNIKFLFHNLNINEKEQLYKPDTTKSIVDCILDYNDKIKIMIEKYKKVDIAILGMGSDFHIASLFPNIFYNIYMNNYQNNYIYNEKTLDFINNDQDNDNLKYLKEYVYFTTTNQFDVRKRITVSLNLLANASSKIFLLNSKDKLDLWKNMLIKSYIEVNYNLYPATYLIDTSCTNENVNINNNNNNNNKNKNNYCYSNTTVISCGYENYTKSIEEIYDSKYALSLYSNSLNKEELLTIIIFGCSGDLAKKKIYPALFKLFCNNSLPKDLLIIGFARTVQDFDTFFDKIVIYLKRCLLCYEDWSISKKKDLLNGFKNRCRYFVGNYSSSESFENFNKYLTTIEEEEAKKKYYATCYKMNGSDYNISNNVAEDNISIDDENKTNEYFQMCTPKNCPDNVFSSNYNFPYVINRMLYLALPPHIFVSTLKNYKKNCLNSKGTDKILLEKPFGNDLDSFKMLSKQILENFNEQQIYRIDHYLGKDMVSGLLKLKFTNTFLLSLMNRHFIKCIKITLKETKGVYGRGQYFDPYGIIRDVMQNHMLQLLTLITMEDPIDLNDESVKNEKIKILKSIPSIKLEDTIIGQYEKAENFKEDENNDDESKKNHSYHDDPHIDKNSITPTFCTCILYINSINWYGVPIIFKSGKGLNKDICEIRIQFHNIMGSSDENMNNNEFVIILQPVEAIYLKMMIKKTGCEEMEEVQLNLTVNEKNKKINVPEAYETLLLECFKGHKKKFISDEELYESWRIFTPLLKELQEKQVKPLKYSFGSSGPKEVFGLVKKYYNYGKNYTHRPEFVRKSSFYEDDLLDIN

T2 sequence (P11413 whole entry): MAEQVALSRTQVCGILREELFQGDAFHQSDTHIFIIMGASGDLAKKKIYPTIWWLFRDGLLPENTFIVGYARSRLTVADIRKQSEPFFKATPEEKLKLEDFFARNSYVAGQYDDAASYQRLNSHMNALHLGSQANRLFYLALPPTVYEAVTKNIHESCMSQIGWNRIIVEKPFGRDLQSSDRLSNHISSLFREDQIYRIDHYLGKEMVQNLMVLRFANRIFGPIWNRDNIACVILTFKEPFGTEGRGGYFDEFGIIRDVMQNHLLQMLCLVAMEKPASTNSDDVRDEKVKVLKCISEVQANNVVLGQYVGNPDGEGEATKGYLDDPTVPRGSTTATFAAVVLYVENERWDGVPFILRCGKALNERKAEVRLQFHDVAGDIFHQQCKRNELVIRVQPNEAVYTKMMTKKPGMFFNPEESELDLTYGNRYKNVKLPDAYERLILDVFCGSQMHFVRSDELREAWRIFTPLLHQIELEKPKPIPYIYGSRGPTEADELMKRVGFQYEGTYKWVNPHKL

CCN1CCC[C@@H]1CNC(=O)c1ccc2c(c1)NC(=O)c1cccc(C)c1S2 [ML304]
Active concentration on P. falciparum 3D7 in cell culture (P. falciparum 3D7 [1]): lower than 1 µM
Increase of 405/475 nm fluorescence ratio ([2]; 8.88 µM, 24 h, ring stage, p < 0.01): threefold
Effect on fluorescence ratio ([2]; 4 h incubation, trophozoite stage, 1 to 100 times EC50): concentration-dependent increase in fluorescence ratio
Effect on viability of Plasmodium gametocytes (Plasmodium gametocytes): strongly impair the viability
Interaction with methylene blue on late stage gametocytes (Plasmodium gametocytes): synergistic effects
Direct interaction with recombinantly purified hGrx1-roGFP2 probe (recombinant hGrx1-roGFP2): excluded a direct interaction
Effect on cytosolic H2O2 levels [3]: significantly increase
EC50 (P. falciparum 3D7 [4]): 471 ± 39.5 nM
Active concentration on P. falciparum Dd2 in cell culture (P. falciparum Dd2): about 5 µM
IC50 (hG6PD): 80000 nM and > 80000 nM
LD50 against human hepatocyte cell lines [5]: > 50 µM
IC50 (PfGluPho): 190 nM
